# Results as given in publication PMC5608804, “Stepwise Evolution Improves Identification of Diverse Peptides Binding to a Protein Target” (Scientific Reports, 2017).
# Biological target: T1, streptavidin (Streptomyces avidinii, UniProt P22629)
# T1 construct: purchased GE Healthcare (Little Chalfont, UK)
# Assay: Cy5-streptavidin binding on HotSpot discovery array, 5-mer L-peptide library
# Details: 5-mer L-peptide library array, Cy5-streptavidin; from average of three arrays
# Method in brief: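 Array of 2,476,099 5-mer peptides (19 amino acids, no cysteine) with Gly-Ser linkers, probed overnight at 4 °C with 0.5 µg/ml Cy5-streptavidin in Tris pH 7.4 buffer containing casein or BSA plus Tween-20. Cy5 fluorescence read at 635 nm; peptides selected by signal-to-background >4 across three arrays.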
# T1 sequence (P22629 25-183): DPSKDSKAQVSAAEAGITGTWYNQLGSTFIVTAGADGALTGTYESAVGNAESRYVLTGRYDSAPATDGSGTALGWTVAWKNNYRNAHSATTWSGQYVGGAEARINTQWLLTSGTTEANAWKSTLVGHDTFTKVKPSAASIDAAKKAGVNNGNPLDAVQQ
row,Substance,S/B (signal to background ratio)
1,PMHPQ,135.3
2,WHPQK,42.1
3,MQHPM,43.9
4,HHPMN,25.7
5,ENHPM,23.5
6,EHPQS,36.4
7,LQHPQ,163.6
8,LSHPQ,156.2
9,WHPQV,137.6
10,VPHPM,45.9
11,DHPMG,29.8
12,GHPQG,135.5
13,WVHPQ,169.6
14,HPQNL,57.7
15,SHPQY,47.6
16,WIHPQ,166.2
17,FRHPQ,211.5
18,FHHPQ,219.2
19,WNHPQ,215.8
20,HFHPQ,174.7
21,MHHPQ,178.1
22,NHPQA,121.8
23,QHPQG,122.5

row,Substance,S/B (signal to background ratio)
1,PSHPQ,136.6
2,YTHPQ,174.6
3,GMHPQ,126.3
4,IGHPQ,174.2
5,HPQNI,48.9
6,MHPQQ,29.0
7,AHPMS,27.6
8,RMHPM,37.9
9,THPQA,140.8
10,LWHPQ,177.2
11,QRHPM,57.2
12,TNHPQ,135.8
13,WHPQN,176.6
14,HPQGK,29.8
15,KPHPM,21.9
16,RSHPQ,137.5
17,YLHPQ,152.2
18,GSHPM,43.0
19,ALHPQ,123.6
20,VHPQQ,30.0
21,FHPQA,138.8
22,HPQFP,141.5
23,HPQYA,20.2

row,Substance,S/B (signal to background ratio)
1,PRHPQ,161.5
2,QPHPM,52.0
3,MKHPM,20.4
4,SLHPQ,133.4
5,PHPQA,128.7
6,HPMGQ,20.5
7,RGHPQ,135.0
8,GLHPQ,132.8
9,TMHPM,25.5
10,LTHPQ,150.0
11,MHPMG,42.9
12,FIHPQ,152.7
13,NWHPQ,184.8
14,PHPQW,23.8
15,HHPQN,150.9
16,PIHPM,24.8
17,HTHPQ,139.1
18,PHPQY,41.4
19,PHPQN,138.6
20,LHPMA,41.0
21,RNHPM,54.6
22,YHHPQ,183.0
23,QQHPQ,136.6

row,Substance,S/B (signal to background ratio)
1,RHPMS,30.8
2,YSHPQ,171.8
3,LGAYH [L-amino acid 5-mer array peptide],52.2
4,ASHPQ,130.1
5,MHPQG,122.9
6,HPQVD,33.5
7,HPQGG,131.5
8,HNHPQ,146.9
9,PHPMV,24.7
10,SMHPQ,142.0
11,HPQVQ,49.2
12,IKHPM,19.0
13,TRHPQ,156.2
14,FKHPM,44.4
15,HPMFN,39.1
16,PGHPQ,168.5
17,VHPQH,31.7
18,YQHPQ,172.3
19,VRHPQ,151.4
20,HRHPQ,149.4

# Same assay, conditions: 5-mer L-peptide library array, Cy5-streptavidin; from the average of three arrays
row,Substance,S/B (signal to background ratio)
1,MDHPQ,88.9
2,PDHPQ,72.7
3,HHPQG,108.6
4,HPMGG,60.6
5,MIHPQ,97.1
6,DNHPQ,74.6
7,HPQSG,90.1
8,WMHPM,117.2
9,HPQVY,64.1
10,VKHPQ,64.6
11,NHPQF,99.9
12,HIHPQ,104.7
13,SDHPQ,92.6
14,PHPQF,98.8
15,WKHPM,66.5
16,LGHPM,76.1
17,RWHPM,79.7
18,DMHPQ,69.3
19,PKHPQ,80.7
20,HPQFF,71.6
21,WEHPQ,98.3
22,SRHPM,57.8

row,Substance,S/B (signal to background ratio)
1,NHPMA,59.8
2,DYHPQ,103.8
3,HPQFV,69.2
4,DFHPQ,75.2
5,HHHPM,67.1
6,YQHPM,84.6
7,GRHPM,62.1
8,QHHPM,64.4
9,QEHPQ,63.4
10,HPQVN,63.9
11,HPQMG,59.2
12,WEHPM,69.6
13,LHPQN,105.2
14,HPQGW,60.3
15,THHPM,58.0
16,KHHPQ,96.3
17,IVHPQ,94.3
18,HPQFQ,90.6
19,RHPMA,68.6
20,QHPQV,84.6
21,YPHPM,98.4
22,KIHPQ,60.4

# Same assay, conditions: 5-mer L-peptide library, from the average of three arrays
row,Substance,S/B (signal to background ratio)
1,WHPNR,5.2
2,GHPPQ,5.2
3,HPRWG,4.2
4,HPQLY,4.1
5,GHPMW,4.4
6,HPMNH,4.4
7,RHPMD,4.3
8,FLGHP,4.2
9,PIPDW [L-amino acid 5-mer array peptide],4.1
10,HPMKP,4.6
11,FFMMF [L-amino acid 5-mer array peptide],4.3
12,HPMRA,4.8
13,GLGYH [L-amino acid 5-mer array peptide],4.6
14,PHPMW,5.2
15,WGHPH,4.1
16,HPMNY,4.6
17,WHMPQ,4.6
18,HPWRN,4.7
19,HPQPW,4.6
20,LAFFH [L-amino acid 5-mer array peptide],4.9

# Same assay, conditions: average of three arrays, L-peptide 5-mer library
row,Substance,S/B (signal to background ratio)
1,DPFGW [L-amino acid 5-mer array peptide],10.1
2,PIPDW [L-amino acid 5-mer array peptide],4.1
3,MPWRN [L-amino acid 5-mer array peptide],5.2
4,FFMMF [L-amino acid 5-mer array peptide],4.3
5,RFDLL [L-amino acid 5-mer array peptide],5.2
6,GLGYH [L-amino acid 5-mer array peptide],4.6
7,LGAYH [L-amino acid 5-mer array peptide],52.2
8,MLAHF [L-amino acid 5-mer array peptide],7.2
9,NWDVI [L-amino acid 5-mer array peptide],5.3
10,LAFFH [L-amino acid 5-mer array peptide],4.9

# Same assay, conditions: signal to background ratio; 5-mer L-peptide library array, Cy5-streptavidin
row,Substance,S/B
1,LHPMR,7.0
2,KHPMN,5.9
3,WHPQP,10.7
4,DPFGW [L-amino acid 5-mer array peptide],10.1
5,HPQPN,5.5
6,HPMYH,13.0
7,HPQRV,5.3
8,HPQSF,13.1
9,HPMGT,12.0
10,HPMQG,16.2
11,HHPQL,5.7
12,KHPMV,6.9
13,PHPMH,8.8
14,HPQAI,10.7
15,HPMGK,5.3
16,LHPMI,5.3
17,HPQYK,6.3
18,HPMFV,7.5
19,HPQRH,8.8
20,HPMRW,12.6
21,DHPMM,5.6
22,MPWRN [L-amino acid 5-mer array peptide],5.2
23,HPQSH,12.3
24,RHPQE,8.3
25,HPQKY,5.5

row,Substance,S/B
1,HPQYY,9.4
2,HPQAL,10.3
3,HPQSW,18.3
4,RFDLL [L-amino acid 5-mer array peptide],5.2
5,VHPMN,13.1
6,HPMFH,6.8
7,HPMTP,5.6
8,HPMGV,9.2
9,HPMKN,8.2
10,RHPMW,5.9
11,AHPMY,7.7
12,PHPMN,14.3
13,GHPMF,15.1
14,HPMYA,11.4
15,HPMFW,6.5
16,HPQQD,7.4
17,HPMRY,5.8
18,HPQFK,17.7
19,HPQIF,6.3
20,THPMY,10.9
21,MLAHF [L-amino acid 5-mer array peptide],7.2
22,NWDVI [L-amino acid 5-mer array peptide],5.3
23,HPQAV,17.8
24,HPQMY,11.1
